# Source: US8889919B2, “Cyclic compound, process for production of the cyclic compound, radiation-sensitive composition, and method for formation of resist pattern” (Mitsubishi Gas Chemical Company, Inc., priority 2009, dated 2014)
# Assay: Solubility of compound in safety solvent
# Format: physicochemical
# Settings: for Solubility in CHN: solvent cyclohexanone (CHN); for Solubility in PGME: solvent propylene glycol monomethyl ether (PGME)
# Procedure: (1) Solubility of Compound in Safety Solvent
# The compounds obtained in Synthesis Examples 1 to 6 and Synthesis 1 to 4 were evaluated for the solubility in propylene glycol monomethyl ether (PGME) and cyclohexanone (CHN).
# B: 1.0 wt %≦dissolved amount<4.0 wt %
# C: dissolved amount<1.0 wt %
SMILES,Solubility in CHN,Solubility in PGME
CC(C)c1ccc(C2c3cc(c(O)cc3O)C(c3ccc(C(C)C)cc3)c3cc(c(O)cc3O)C(c3ccc(C(C)C)cc3)c3cc(c(O)cc3O)C(c3ccc(C(C)C)cc3)c3cc2c(O)cc3O)cc1 (centres unmarked) [CR-1A],A (4.0 wt %≦amount),B (1.0 wt %≦dissolved amount<4.0 wt %)
CC(C)Cc1ccc(C2c3cc(c(O)cc3O)C(c3ccc(CC(C)C)cc3)c3cc(c(O)cc3O)C(c3ccc(CC(C)C)cc3)c3cc(c(O)cc3O)C(c3ccc(CC(C)C)cc3)c3cc2c(O)cc3O)cc1 (centres unmarked) [CR-2A],B (1.0 wt %≦dissolved amount<4.0 wt %),C (dissolved amount<1.0 wt %)
Oc1cc(O)c2cc1C(c1ccc(-c3ccccc3)cc1)c1cc(c(O)cc1O)C(c1ccc(-c3ccccc3)cc1)c1cc(c(O)cc1O)C(c1ccc(-c3ccccc3)cc1)c1cc(c(O)cc1O)C2c1ccc(-c2ccccc2)cc1 (centres unmarked) [CR-3A],A (4.0 wt %≦amount),C (dissolved amount<1.0 wt %)
Oc1cc(O)c2cc1C(c1ccc(C3CCCCC3)cc1)c1cc(c(O)cc1O)C(c1ccc(C3CCCCC3)cc1)c1cc(c(O)cc1O)C(c1ccc(C3CCCCC3)cc1)c1cc(c(O)cc1O)C2c1ccc(C2CCCCC2)cc1 (centres unmarked) [CR-4A],A (4.0 wt %≦amount),B (1.0 wt %≦dissolved amount<4.0 wt %)
